Experiments:
[1] = Hard surface cleaning formulation freeze-thaw testing; assay type: physicochemical; settings: for Freeze-thaw visual observation: Example 5 formulation containing the solvent, 0° C. freezer >12 hours, thaw to room temperature
Experimental: Formulations as in Example 5 were prepared by combining ingredients and mixing until homogeneous. Freeze-thaw testing was performed over 3 cycles. Each cycle was putting the formulations into a 0° C. freezer for greater than 12 hours, then taking them out and allowing the samples to thaw to room temperature and then making the visual observation.

[2] = Hard surface cleaning formulation heat cloud point testing; assay type: physicochemical; settings: Example 5 formulation containing the solvent; for Cloud point: heated while mixing
Experimental: Formulations as in Example 5 were prepared by combining ingredients and mixing until homogeneous.

[3] = Coupling of water and octanoic acid by hydrotropes (amount producing a single phase); assay type: physicochemical
Experimental: Hydrotropes were added to a two-component mixture of octanoic acid and deionized (DI) water to find the amount that produced a single phase from the two separate phases of water and octanoic acid.
The percent hydrotrope required to compatibilize phases (and the resulting percent octanoic acid) were calculated and the results are shown in Table 4 as well as FIG. 1.

[4] = Coupling of water and castor oil by hydrotropes; assay type: physicochemical
[5] = Coupling of water and soy methyl ester by hydrotropes; assay type: physicochemical
Experimental: Hydrotropes were added to a two-component mixture of soy methyl ester and DI water to find the amount that produced a single phase from the two separate phases of water and soy methyl ester. The percent hydrotrope required to compatibilize the phases was calculated.

[6] = Hard surface cleaning formulation pH testing over 7 days; assay type: physicochemical; settings: 5 g solvent per 100 g
Experimental: Formulations were prepared by combining ingredients and mixing until homogeneous. Next, pH measurements were taken over 7 days.

[7] = Vanillin composition in ketal alcohol (1a); assay type: physicochemical; settings: 75% ketal alcohol (1a) to 25% vanillin by weight, room temperature
Experimental: Vanillin was dissolved into the ketal alcohol (1a) at room temperature using 75% ketal alcohol (1a) to 25% vanillin by weight.

[8] = Hair dye active solubility testing
Experimental: Two component mixtures using ketal alcohol (1a) and the actives shown in Table 13 were prepared by mixing the components at various proportions in a vial at room temperature and then heating in a lab oven at 80° C. for 10 minutes and then shaking.
Comparative formulations using EtLGK and ketal alcohol (1a) are shown below in Tables 14 and 15.

[9] = ratio of water:octanoic acid 10:90
[10] = ratio of water:octanoic acid 30:70
[11] = ratio of water:octanoic acid 50:50
[12] = ratio of water:octanoic acid 70:30
[13] = ratio of water:octanoic acid 90:10
[14] = water:octanoic acid 10:90 (DI water 0.5 g, octanoic acid 4.5 g)
[15] = water:octanoic acid 30:70 (DI water 1.5 g, octanoic acid 3.5 g)
[16] = water:octanoic acid 50:50 (DI water 5.0 g, octanoic acid 5.0 g)
[17] = water:octanoic acid 70:30 (DI water 3.5 g, octanoic acid 1.5 g)
[18] = water:octanoic acid 90:10 (DI water 4.5 g, octanoic acid 0.5 g)
[19] = ratio of water to castor oil 10:90
[20] = ratio of water to castor oil 30:70
[21] = ratio of water to castor oil 50:50
[22] = ratio of water to castor oil 70:30
[23] = ratio of water to castor oil 90:10
[24] = ratio of water:soy methyl esters 10:90
[25] = ratio of water:soy methyl esters 30:70
[26] = ratio of water:soy methyl esters 50:50
[27] = ratio of water:soy methyl esters 70:30
[28] = ratio of water:soy methyl esters 90:10

SMILES: CCCCOCCO [2-butoxyethanol]
- Freeze-thaw visual observation ([1]; Cycle 1): separation;
- Freeze-thaw visual observation ([1]; Cycle 2): separation;
- Freeze-thaw visual observation ([1]; Cycle 3): two phases;
- Cloud point [2]: 44 °C
- Cloud point ([2]; listed as Butyl Cellosolve): 44 °C
- Wt % Hydrotrope required to compatibilize phases [3, 9]: 33%
- Wt % Octanoic Acid (resulting, at compatibilization) [3, 9]: 60%
- Wt % Hydrotrope required to compatibilize phases [3, 10]: 52%
- Wt % Octanoic Acid (resulting, at compatibilization) [3, 10]: 34%
- Wt % Hydrotrope required to compatibilize phases [3, 11]: 57%
- Wt % Octanoic Acid (resulting, at compatibilization) [3, 11]: 21%
- Wt % Hydrotrope required to compatibilize phases [3, 12]: 61%
- Wt % Octanoic Acid (resulting, at compatibilization) [3, 12]: 12%
- Wt % Hydrotrope required to compatibilize phases [3, 13]: 52%
- Wt % Octanoic Acid (resulting, at compatibilization) [3, 13]: 5%
- Amount of hydrotrope that produced a single phase [3, 14]: 2.47 grams
- Amount of hydrotrope that produced a single phase [3, 15]: 5.39 grams
- Amount of hydrotrope that produced a single phase [3, 16]: 6.74 grams
- Amount of hydrotrope that produced a single phase [3, 17]: 7.9 grams
- Amount of hydrotrope that produced a single phase [3, 18]: 5.43 grams

SMILES: CCOC(=O)CCC1(C)OCC(CO)O1 (stereo not shown) [EtLGK, glycerol ketal of ethyl levulinic acid]
- Wt % Castor oil (at compatibilization) [4, 19]: 35%
- Wt % Hydrotrope required to compatibilize phases [4, 19]: 61%
- Wt % Castor oil (at compatibilization) [4, 20]: 17%
- Wt % Hydrotrope required to compatibilize phases [4, 20]: 76%
- Wt % Castor oil (at compatibilization) [4, 21]: 9%
- Wt % Hydrotrope required to compatibilize phases [4, 21]: 82%
- Wt % Castor oil (at compatibilization) [4, 22]: 4%
- Wt % Hydrotrope required to compatibilize phases [4, 22]: 86%
- Wt % Castor oil (at compatibilization) [4, 23]: 1%
- Wt % Hydrotrope required to compatibilize phases [4, 23]: 85%
- Freeze-thaw visual observation ([1]; Cycle 1): stable;
- Freeze-thaw visual observation ([1]; Cycle 2): gradient;
- Freeze-thaw visual observation ([1]; Cycle 3): gradient;
- Cloudiness on heating [2]: showed no signs of cloudiness
- Cloud point [2]: >100 °C
- Wt % Hydrotrope required to compatibilize the phases [5, 24]: 78%
- Wt % Soy Methyl Esters (at compatibilization) [5, 24]: 20%
- Wt % Hydrotrope required to compatibilize the phases [5, 25]: 83%
- Wt % Soy Methyl Esters (at compatibilization) [5, 25]: 12%
- Wt % Hydrotrope required to compatibilize the phases [5, 26]: 86%
- Wt % Soy Methyl Esters (at compatibilization) [5, 26]: 7%
- Wt % Hydrotrope required to compatibilize the phases [5, 27]: 86%
- Wt % Soy Methyl Esters (at compatibilization) [5, 27]: 4%
- Wt % Hydrotrope required to compatibilize the phases [5, 28]: 84%
- Wt % Soy Methyl Esters (at compatibilization) [5, 28]: 2%
- pH stability of the formulation containing the solvent [6]: underwent significant pH drift downward
- Wt % Hydrotrope required to compatibilize phases [3, 9]: 38%
- Wt % Octanoic Acid (resulting, at compatibilization) [3, 9]: 55%
- Wt % Hydrotrope required to compatibilize phases [3, 10]: 59%
- Wt % Octanoic Acid (resulting, at compatibilization) [3, 10]: 29%
- Wt % Hydrotrope required to compatibilize phases [3, 11]: 69%
- Wt % Octanoic Acid (resulting, at compatibilization) [3, 11]: 15%
- Wt % Hydrotrope required to compatibilize phases [3, 12]: 66%
- Wt % Octanoic Acid (resulting, at compatibilization) [3, 12]: 10%
- Wt % Hydrotrope required to compatibilize phases [3, 13]: 58%
- Wt % Octanoic Acid (resulting, at compatibilization) [3, 13]: 4%
- Amount of hydrotrope that produced a single phase [3, 14]: 3.11 grams
- Amount of hydrotrope that produced a single phase [3, 15]: 7.2 grams
- Amount of hydrotrope that produced a single phase [3, 16]: 22.68 grams
- Amount of hydrotrope that produced a single phase [3, 17]: 9.79 grams
- Amount of hydrotrope that produced a single phase [3, 18]: 6.84 grams

SMILES: CC1COC(C)(CCCO)O1 (stereo not shown) [Ketal alcohol (1a)]
- Wt % Castor oil (at compatibilization) [4, 19]: 32%
- Wt % Hydrotrope required to compatibilize phases [4, 19]: 64%
- Wt % Castor oil (at compatibilization) [4, 20]: 21%
- Wt % Hydrotrope required to compatibilize phases [4, 20]: 71%
- Wt % Castor oil (at compatibilization) [4, 21]: 11%
- Wt % Hydrotrope required to compatibilize phases [4, 21]: 79%
- Wt % Castor oil (at compatibilization) [4, 22]: 5%
- Wt % Hydrotrope required to compatibilize phases [4, 22]: 82%
- Wt % Castor oil (at compatibilization) [4, 23]: 2%
- Wt % Hydrotrope required to compatibilize phases [4, 23]: 84%
- Freeze-thaw visual observation ([1]; Cycle 1): stable;
- Freeze-thaw visual observation ([1]; Cycle 2): gradient;
- Freeze-thaw visual observation ([1]; Cycle 3): gradient;
- Freeze-thaw performance overall ([1]; formulation containing the solvent, 3 cycles): performed similarly to or better than the 2-butoxyethanol
- Cloudiness on heating [2]: showed no signs of cloudiness
- Cloud point [2]: >100 °C
- Wt % Hydrotrope required to compatibilize the phases [5, 24]: 58%
- Wt % Soy Methyl Esters (at compatibilization) [5, 24]: 38%
- Wt % Hydrotrope required to compatibilize the phases [5, 25]: 73%
- Wt % Soy Methyl Esters (at compatibilization) [5, 25]: 19%
- Wt % Hydrotrope required to compatibilize the phases [5, 26]: 81%
- Wt % Soy Methyl Esters (at compatibilization) [5, 26]: 10%
- Wt % Hydrotrope required to compatibilize the phases [5, 27]: 83%
- Wt % Soy Methyl Esters (at compatibilization) [5, 27]: 5%
- Wt % Hydrotrope required to compatibilize the phases [5, 28]: 81%
- Wt % Soy Methyl Esters (at compatibilization) [5, 28]: 2%
- Wt % Hydrotrope required to compatibilize phases [3, 9]: 31%
- Wt % Octanoic Acid (resulting, at compatibilization) [3, 9]: 62%
- Wt % Hydrotrope required to compatibilize phases [3, 10]: 53%
- Wt % Octanoic Acid (resulting, at compatibilization) [3, 10]: 33%
- Wt % Hydrotrope required to compatibilize phases [3, 11]: 54%
- Wt % Octanoic Acid (resulting, at compatibilization) [3, 11]: 23%
- Wt % Hydrotrope required to compatibilize phases [3, 12]: 55%
- Wt % Octanoic Acid (resulting, at compatibilization) [3, 12]: 14%
- Wt % Hydrotrope required to compatibilize phases [3, 13]: 46%
- Wt % Octanoic Acid (resulting, at compatibilization) [3, 13]: 5%
- Amount of hydrotrope that produced a single phase [3, 14]: 2.27 grams
- Amount of hydrotrope that produced a single phase [3, 15]: 5.63 grams
- Amount of hydrotrope that produced a single phase [3, 16]: 11.81 grams
- Amount of hydrotrope that produced a single phase [3, 17]: 6.07 grams
- Amount of hydrotrope that produced a single phase [3, 18]: 4.33 grams

SMILES: CCOC(=O)CCC1(C)OCC(CO)O1 (stereo not shown) [Ketal alcohol (1a)]
- pH stability of the formulation containing the solvent [6]: maintained the same pH as the formulation containing 2-butoxyethanol and the control formulation

SMILES: COc1cc(C=O)ccc1O [Vanillin]
- Appearance of mixture in ketal alcohol (1a) [7]: homogeneous clear liquid with no signs of precipitate

SMILES: Nc1ccc(N)cc1 [p-phenylene diamine]
- Ketal Alcohol (1a) Solubility ([8]; Table 15, weight percentage active 1%): insoluble
- Ketal Alcohol (1a) Solubility ([8]; weight percentage active 1%, 80° C. 10 minutes, shaking, room temperature 24 hours): soluble
- EtLGK Solubility ([8]; weight percentage active 5% in EtLGK): soluble
- Ketal Alcohol (1a) Solubility ([8]; weight percentage active 5%, 80° C. 10 minutes, shaking, room temperature 24 hours): soluble
- Ketal Alcohol (1a) Solubility ([8]; weight percentage active 10%, 80° C. 10 minutes, shaking, room temperature 24 hours): insoluble
